Test results reported in patent US20140024527A1, “HERBICIDAL PYRAZINONES” (E I DU DE NEMOURS AND COMPANY, priority 2011, published 2014).

Tests used:
Assay type in all cases: in vivo
[1] = tested on: barnyardgrass (Echinochloa crus-galli); assay: Test A preemergence; details: 0 to 100 scale, 0 no effect, 100 complete control, approx. 10 days
In short: (§1)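 Visual injury rating, 0 = no effect to 100 = complete control, made versus untreated controls after about 10 days in greenhouse. Compounds formulated in non-phytotoxic solvent mixture plus surfactant; applied as directed soil spray preemergence or to one- to two-leaf plants (2–10 cm) postemergence, in loam soil and sand.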

[2] = tested on: wheat (Triticum aestivum); assay: Test A preemergence; details: 0 to 100 scale, 0 no effect, 100 complete control, approx. 10 days
In short: as §1

[3] = tested on: velvetleaf (Abutilon theophrasti); assay: Test A preemergence; details: 0 to 100 scale, 0 no effect, 100 complete control, approx. 10 days
In short: as §1

[4] = tested on: corn (Zea mays); assay: Test A preemergence; details: 0 to 100 scale, 0 no effect, 100 complete control, approx. 10 days
In short: as §1

[5] = tested on: giant foxtail (Setaria faberii); assay: Test A preemergence; details: 0 to 100 scale, 0 no effect, 100 complete control, approx. 10 days
In short: as §1

[6] = tested on: pigweed (Amaranthus retroflexus); assay: Test A preemergence; details: 0 to 100 scale, 0 no effect, 100 complete control, approx. 10 days
In short: as §1

[7] = tested on: large crabgrass (Digitaria sanguinalis); assay: Test A preemergence; details: 0 to 100 scale, 0 no effect, 100 complete control, approx. 10 days
In short: as §1

[8] = tested on: morningglory (Ipomoea spp.); assay: Test A preemergence; details: 0 to 100 scale, 0 no effect, 100 complete control, approx. 10 days
In short: as §1

[9] = tested on: wild oat (Avena fatua); assay: Test B postemergence; details: scale 0 to 100
Source text: (§2) Seeds of plant species selected from blackgrass (Alopecurus myosuroides), downy bromegrass (Bromus tectorum), green foxtail (Setaria viridis), Italian ryegrass (Lolium multiflorum), wheat (Triticum aestivum), wild oat (Avena fatua), galium (Galium aparine), bermudagrass (Cynodon dactylon), Surinam grass (Brachiaria decumbens), cocklebur (Xanthium strumarium), corn (Zea mays), large crabgrass (Digitaria sanguinalis), woolly cupgrass (Eriochloa villosa), giant foxtail (Setaria faberii), goosegrass (Eleusine indica), johnsongrass (Sorghum halepense), kochia (Kochia scoparia), lambsquarters (Chenopodium album), morningglory (Ipomoea coccinea), yellow nutsedge (Cyperus esculentus), pigweed (Amaranthus retroflexus), ragweed (Ambrosia elatior), soybean (Glycine max), velvetleaf (Abutilon theophrasti), barley (Hordeum vulgare), canarygrass (Phalaris minor), chickweed (Stellaria media), deadnettle (Lamium amplexicaule) and windgrass (Apera spica-venti) were planted in pots containing Redi-Earth® planting medium (Scotts Company, Marysville, Ohio, USA) comprising spaghnum peat moss, vermiculite, wetting agent and starter nutrients and treated postemergence with test compounds formulated in a non-phytotoxic solvent mixture which included a surfactant. Plants ranged in height from 2 to 18 cm (1- to 4-leaf stage).
(§3) Treated plants and controls were maintained in a greenhouse for 13 to 15 days, after which time all species were compared to controls and visually evaluated. Plant response ratings, summarized in Table B, are based on a scale of 0 to 100 where 0 is no effect and 100 is complete control. A dash (-) response means no test result.

[10] = tested on: canarygrass (Phalaris minor); assay: Test B postemergence; details: scale 0 to 100
Source text: as §2, §3

[11] = tested on: downy bromegrass (Bromus tectorum); assay: Test B postemergence; details: scale 0 to 100
Source text: as §2, §3

[12] = tested on: bermudagrass (Cynodon dactylon); assay: Test B postemergence; details: scale 0 to 100
Source text: as §2, §3

[13] = tested on: morningglory (Ipomoea coccinea); assay: Test B postemergence; details: scale 0 to 100
Source text: as §2, §3

[14] = tested on: woolly cupgrass (Eriochloa villosa); assay: Test B postemergence; details: scale 0 to 100
Source text: as §2, §3

[15] = tested on: Italian ryegrass (Lolium multiflorum); assay: Test B postemergence; details: scale 0 to 100
Source text: as §2, §3

[16] = tested on: barley (Hordeum vulgare); assay: Test B postemergence; details: scale 0 to 100
Source text: as §2, §3

[17] = tested on: barnyardgrass (Echinochloa crus-galli); assay: Test A postemergence; details: 0 to 100 scale, 0 no effect, 100 complete control, approx. 10 days
In short: as §1

[18] = tested on: wheat (Triticum aestivum); assay: Test A postemergence; details: 0 to 100 scale, 0 no effect, 100 complete control, approx. 10 days
In short: as §1

[19] = tested on: velvetleaf (Abutilon theophrasti); assay: Test A postemergence; details: 0 to 100 scale, 0 no effect, 100 complete control, approx. 10 days
In short: as §1

[20] = tested on: corn (Zea mays); assay: Test A postemergence; details: 0 to 100 scale, 0 no effect, 100 complete control, approx. 10 days
In short: as §1

[21] = tested on: giant foxtail (Setaria faberii); assay: Test A postemergence; details: 0 to 100 scale, 0 no effect, 100 complete control, approx. 10 days
In short: as §1

[22] = tested on: pigweed (Amaranthus retroflexus); assay: Test A postemergence; details: 0 to 100 scale, 0 no effect, 100 complete control, approx. 10 days
In short: as §1

[23] = tested on: large crabgrass (Digitaria sanguinalis); assay: Test A postemergence; details: 0 to 100 scale, 0 no effect, 100 complete control, approx. 10 days
In short: as §1

[24] = tested on: morningglory (Ipomoea spp.); assay: Test A postemergence; details: 0 to 100 scale, 0 no effect, 100 complete control, approx. 10 days
In short: as §1

## COCCn1c(-c2cc(F)cc(F)c2)c(Cl)nc(C(=O)C2=C(O)CCCC2=O)c1=O [Compound 6, 5-chloro-6-(3,5-difluorophenyl)-3-[(2-hydroxy-6-oxo-1-cyclohexen-1-yl)carbonyl]-1-(2-methoxyethyl)-2(1H)-pyrazinone]
[1]; 125 g ai/ha
  Plant response rating, Barnyardgrass: 20
[1]; 500 g ai/ha
  Plant response rating, Barnyardgrass: 90
[2]; 125 g ai/ha
  Plant response rating, Wheat: 0
[2]; 500 g ai/ha
  Plant response rating, Wheat: 20
[3]; 125 g ai/ha
  Plant response rating, Velvetleaf: 50
[3]; 500 g ai/ha
  Plant response rating, Velvetleaf: 100
[4]; 125 g ai/ha
  Plant response rating, Corn: 0
[4]; 500 g ai/ha
  Plant response rating, Corn: 20
[5]; 125 g ai/ha
  Plant response rating, Foxtail, Giant: 20
[5]; 500 g ai/ha
  Plant response rating, Foxtail, Giant: 70
[6]; 125 g ai/ha
  Plant response rating, Pigweed: 50
[6]; 500 g ai/ha
  Plant response rating, Pigweed: 90
[7]; 125 g ai/ha
  Plant response rating, Crabgrass, Large: 90
[7]; 500 g ai/ha
  Plant response rating, Crabgrass, Large: 100
[8]; 125 g ai/ha
  Plant response rating, Morningglory: 40
[8]; 500 g ai/ha
  Plant response rating, Morningglory: 80
[9]; 31 g ai/ha
  Plant response rating, Oat, Wild: 10
[9]; 62 g ai/ha
  Plant response rating, Oat, Wild: 40
[9]; 125 g ai/ha
  Plant response rating, Oat, Wild: 40
[9]; 250 g ai/ha
  Plant response rating, Oat, Wild: 90
[10]; 31 g ai/ha
  Plant response rating, Canarygrass: 55
[10]; 62 g ai/ha
  Plant response rating, Canarygrass: 55
[10]; 125 g ai/ha
  Plant response rating, Canarygrass: 70
[10]; 250 g ai/ha
  Plant response rating, Canarygrass: 90
[11]; 31 g ai/ha
  Plant response rating, Bromegrass, Downy: 15
[11]; 62 g ai/ha
  Plant response rating, Bromegrass, Downy: 35
[11]; 125 g ai/ha
  Plant response rating, Bromegrass, Downy: 50
[11]; 250 g ai/ha
  Plant response rating, Bromegrass, Downy: 60
[12]; 31 g ai/ha
  Plant response rating, Bermudagrass: 5
[12]; 62 g ai/ha
  Plant response rating, Bermudagrass: 45
[12]; 125 g ai/ha
  Plant response rating, Bermudagrass: 75
[12]; 250 g ai/ha
  Plant response rating, Bermudagrass: 95
[13]; 31 g ai/ha
  Plant response rating, Morningglory: 95
[13]; 62 g ai/ha
  Plant response rating, Morningglory: 100
[13]; 125 g ai/ha
  Plant response rating, Morningglory: 100
[13]; 250 g ai/ha
  Plant response rating, Morningglory: 100
[14]; 31 g ai/ha
  Plant response rating, Cupgrass, Woolly: 90
[14]; 62 g ai/ha
  Plant response rating, Cupgrass, Woolly: 100
[14]; 125 g ai/ha
  Plant response rating, Cupgrass, Woolly: 100
[14]; 250 g ai/ha
  Plant response rating, Cupgrass, Woolly: 100
[15]; 31 g ai/ha
  Plant response rating, Ryegrass, Italian: 0
[15]; 62 g ai/ha
  Plant response rating, Ryegrass, Italian: 5
[15]; 125 g ai/ha
  Plant response rating, Ryegrass, Italian: 15
[15]; 250 g ai/ha
  Plant response rating, Ryegrass, Italian: 45
[16]; 31 g ai/ha
  Plant response rating, Barley: 25
[16]; 62 g ai/ha
  Plant response rating, Barley: 35
[16]; 125 g ai/ha
  Plant response rating, Barley: 50
[16]; 250 g ai/ha
  Plant response rating, Barley: 70
[17]; 125 g ai/ha
  Plant response rating, Barnyardgrass: 90
[17]; 500 g ai/ha
  Plant response rating, Barnyardgrass: 100
[18]; 125 g ai/ha
  Plant response rating, Wheat: 0
[18]; 500 g ai/ha
  Plant response rating, Wheat: 20
[19]; 125 g ai/ha
  Plant response rating, Velvetleaf: 100
[19]; 500 g ai/ha
  Plant response rating, Velvetleaf: 100
[20]; 125 g ai/ha
  Plant response rating, Corn: 0
[20]; 500 g ai/ha
  Plant response rating, Corn: 40
[21]; 125 g ai/ha
  Plant response rating, Foxtail, Giant: 50
[21]; 500 g ai/ha
  Plant response rating, Foxtail, Giant: 90
[22]; 125 g ai/ha
  Plant response rating, Pigweed: 70
[22]; 500 g ai/ha
  Plant response rating, Pigweed: 100
[23]; 125 g ai/ha
  Plant response rating, Crabgrass, Large: 80
[23]; 500 g ai/ha
  Plant response rating, Crabgrass, Large: 100
[24]; 125 g ai/ha
  Plant response rating, Morningglory: 90
[24]; 500 g ai/ha
  Plant response rating, Morningglory: 100
